Like-named read-outs stand apart in the source and are kept apart here. Marks after values point to notes of the source that are not given here. Non-standard residues stand in square brackets, D forms with d. Residues, ends and D or L forms follow the SMILES beside them. d(β3hA) = C[C@@H](N)CC(=O)O
Experiments:
[1] = Enzymatic degradation in rat brain homogenate; assay type: in vitro ADME; conditions: for 100 x k, rate constant of degradation: up to 60 min; for half-life at 0.25 mM: ln2/k, read-out: t1/2, degradation half-life
Protocol: Enzymatic degradation of EM-2 and the analogs was performed measuring their hydrolysis rates in the presence of rat brain homogenate. The homogenate was prepared prior to the experiment. Briefly, rat brains were homogenized in 20 volumes of Tris–HCl (50 mM, pH 7.4) using a Polytron and the obtained aliquots were stored at −80°C. In the experiment, aliquotes of brain homogenate (100 μL, 10 mg protein/mL) were incubated with 100 µL of a peptide (0.5 mM) over 0, 7.5; 15, 22.5; 30, and 60 min at 37°C, in a final volume of 200 µL. After the incubation the degradation reaction was stopped by placing the tube on ice and acidifying the content with 20 µL of HCl (1 M). The aliquots were centrifuged at 20,000 g for 10 min at 4°C. The supernatants were collected and filtered using Millex-GV syringe filters (Millipore). Then the analysis by HPLC on a Vydac C18 column (5 μm, 4.6 × 250 mm), using the solvent system of 0.1% TFA in water (A) and 80% acetonitrile in water containing 0.1% TFA (B) and a linear gradient of 0%–100% B over 25 min, was performed. Three independent experiments for each assay were carried out in duplicate. The rate constants of degradation (k) were obtained by the least square linear regression analysis of logarithmic peak areas [ln (A/AD)], where A—amount of remained peptide, AD—initial amount of peptide versus time. Degradation half-lives (t1/2) were calculated from the rate constants as ln2/k.

human mu receptor = molecular target: T1, human mu receptor (Homo sapiens, UniProt P35372); assay: Calcium mobilization assay, CHO mu cells expressing Gαqi5; assay type: cell-based; conditions: for mu α±SEM: intrinsic activity, Emax ratio to standard agonist EM-2
T1 construct: expressed in transfected cells; host or cells: CHO cells stably co-expressing Gαqi5
T1 sequence (P35372 whole entry): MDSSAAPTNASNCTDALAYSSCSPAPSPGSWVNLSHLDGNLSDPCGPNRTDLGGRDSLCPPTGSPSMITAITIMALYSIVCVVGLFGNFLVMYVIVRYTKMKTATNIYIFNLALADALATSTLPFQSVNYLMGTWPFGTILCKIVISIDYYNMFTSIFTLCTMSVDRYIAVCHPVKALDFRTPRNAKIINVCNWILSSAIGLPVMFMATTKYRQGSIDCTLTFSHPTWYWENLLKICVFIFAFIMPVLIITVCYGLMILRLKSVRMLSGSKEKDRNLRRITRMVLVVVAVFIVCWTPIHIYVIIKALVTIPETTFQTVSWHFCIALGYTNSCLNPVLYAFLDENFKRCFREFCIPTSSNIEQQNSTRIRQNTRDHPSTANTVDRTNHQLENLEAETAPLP

[2] = molecular target: mu receptor-G protein interaction (Homo sapiens, UniProt P35372); assay: BRET mu-G protein interaction assay (membranes of SH-SY5Y cells, mu-RLuc/Gβ1-RGFP)
Chain of mu receptor-G protein interaction (P62871 whole entry): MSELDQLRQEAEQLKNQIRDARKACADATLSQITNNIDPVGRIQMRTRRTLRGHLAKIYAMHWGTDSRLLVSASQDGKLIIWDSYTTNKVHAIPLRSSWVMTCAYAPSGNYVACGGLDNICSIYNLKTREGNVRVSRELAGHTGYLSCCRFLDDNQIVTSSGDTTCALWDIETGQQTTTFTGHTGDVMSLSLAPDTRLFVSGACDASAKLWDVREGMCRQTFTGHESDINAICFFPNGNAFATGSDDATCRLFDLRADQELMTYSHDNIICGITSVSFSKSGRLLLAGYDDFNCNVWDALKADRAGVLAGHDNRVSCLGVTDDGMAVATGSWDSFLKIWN
Chain of mu receptor-G protein interaction (P35372 whole entry): as the sequence (P35372 whole entry) above
Protocol: (§1) SH-SY5Y cells stably co-expressing the fusoproteins mu-RLuc and Gβ1-RGFP or mu-RLuc and β-arrestin 2-RGFP were grown in DMEM/F12 (1:1) medium supplemented with 10% FBS, 2 mM L-Glutamine, 100 μg/mL hygromycin B, 400 μg/mL G418, 100 units/mL penicillin G, 100 μg/mL streptomycin and 1 μg/mL Fungizone at 37°C in a humidified atmosphere with of 5% CO2.
Total protein in membrane preparations was determined by colorimetric method with the Quantum Protein-BCA kit (EuroClone, Pero (MI), IT) and measured using the multiplate reader Victor Nivo (PerkinElmer, Walthman, MA, United States). White opaque 96 wells microplates (PerkinElmer, Walthman, MA, United States) were used to carry out BRET assays. Cell membranes were thawed and resuspended in PBS supplemented with 0.02% BSA before the assay, and an amount of 5 μg of total protein was dispensed in each 96 well. All experiments were carried out at room temperature.
(§2) In agonism experiments, ligands were added and incubated for 5 min before microplate reading. […] BRET ratios were computed as follow: RGFPCPS/RLucCPSligand−RGFPCPS/RLucCPSvehicle
(§3) Concentration-response curves to agonists were fitted to the four-parameter logistic non-linear regression model as follows: Effect=Basal+Emax−Basal/1+10^LogEC50−Logligand×HillSlope

[3] = molecular target: T2, human recombinant mu opioid receptor (Homo sapiens, UniProt P35372); assay: Radioligand binding, [3H]DAMGO displacement, CHO cell membranes
T2 construct: purchased; host or cells: CHO cells (membranes)
T2 sequence (P35372 whole entry): as above

[4] = molecular target: mu receptor-β-arrestin 2 interaction (Homo sapiens, UniProt P35372); assay: BRET mu-β-arrestin 2 interaction assay (living SH-SY5Y cells, mu-RLuc/β-arrestin 2-RGFP), agonism
Chain of mu receptor-β-arrestin 2 interaction (P35372 whole entry): as above
Protocol: as §1
Mu- β-arrestin 2 interaction—Living SH-SY5Y cells expressing mu-RLuc and β-arrestin 2-RGFP were seeded at a cell density of 100,000 cells/well 24 h prior to the test. On the day of the experiment, medium was discarded, and cells were washed with PBS supplemented with 0.5 mM MgCl2, 0.9 mM CaCl2. Cells were subsequently incubated with 2 μM Prolume Purple Coelenterazine (NanoLight Technology, White Mountain, AZ; United States) for 10 min before bioluminescence reading.
as §2, §3

delta-opioid receptor [5] = molecular target: T3, delta-opioid receptor (Homo sapiens, UniProt P41143); assay: Calcium mobilization assay, CHO delta cells expressing GαqG66Di5; assay type: cell-based; set-up: expressed in transfected cells; host or cells: CHO cells co-expressing GαqG66Di5; conditions: inactive = inactive up to 10 µM; for Delta pEC50 (CL95%): calcium mobilization; for Delta α± SEM: intrinsic activity, Emax ratio to standard agonist DPDPE
T3 sequence (P41143 whole entry): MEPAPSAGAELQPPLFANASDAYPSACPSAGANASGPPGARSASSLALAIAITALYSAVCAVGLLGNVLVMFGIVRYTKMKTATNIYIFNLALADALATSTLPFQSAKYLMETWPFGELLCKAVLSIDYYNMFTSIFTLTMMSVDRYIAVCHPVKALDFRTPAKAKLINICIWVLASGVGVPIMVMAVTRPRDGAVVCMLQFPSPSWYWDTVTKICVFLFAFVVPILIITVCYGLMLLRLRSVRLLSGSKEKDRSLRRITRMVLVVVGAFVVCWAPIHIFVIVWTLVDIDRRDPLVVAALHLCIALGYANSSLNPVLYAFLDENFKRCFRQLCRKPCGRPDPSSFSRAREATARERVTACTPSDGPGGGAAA

delta-opioid receptor [6] = molecular target: T3, delta-opioid receptor; assay: Radioligand binding, [3H]deltorphin-2 displacement, CHO cell membranes; set-up: purchased; host or cells: CHO cells (membranes)
mu receptor = assay: Bias factor, mu-G protein vs mu-β-arrestin 2 (BRET), EM-2 as standard ligand; conditions: log10 units, towards G protein
[7] = n-Octanol/water partition coefficient (log P); assay type: physicochemical; conditions: n-octanol / 0.05 M HEPES buffer in 0.1 M NaCl, pH 7.4
Protocol: Determination of log P was performed according to the method described by ([Liu et al., 2006]). Peptides were dissolved in 0.05 M HEPES buffer in 0.1 M NaCl, pH 7.4, then an equal volume of n-octanol was added and mixtures were vortexed for 2 min. Samples were centrifuged at 4,000 rpm for 1 min. After separation, aqueous and octanol phases were used to quantify peptide content by RP-HPLC.
Octanol phase was lyophilized and reconstituted in 80% acetonitrile in water containing 0.1% TFA before RP-HPLC. All n-octanol/buffer distribution studies were performed in triplicate.

[8] = molecular target: T4, human recombinant kappa opioid receptor (Homo sapiens, UniProt P41145); assay: Radioligand binding, [3H]U-69593 displacement, CHO cell membranes
T4 construct: purchased; host or cells: CHO cells (membranes)
T4 sequence (P41145 whole entry): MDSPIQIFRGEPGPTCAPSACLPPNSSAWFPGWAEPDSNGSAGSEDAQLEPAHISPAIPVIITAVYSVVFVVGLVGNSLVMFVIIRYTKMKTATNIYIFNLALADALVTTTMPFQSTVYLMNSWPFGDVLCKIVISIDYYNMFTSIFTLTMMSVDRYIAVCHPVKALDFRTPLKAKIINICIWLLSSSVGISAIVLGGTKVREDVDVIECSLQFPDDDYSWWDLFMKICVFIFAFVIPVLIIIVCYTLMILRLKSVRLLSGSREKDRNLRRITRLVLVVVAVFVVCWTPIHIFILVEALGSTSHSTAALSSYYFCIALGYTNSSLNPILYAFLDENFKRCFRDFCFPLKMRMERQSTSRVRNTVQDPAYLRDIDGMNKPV

human kappa receptor = molecular target: T5, human kappa receptor (Homo sapiens, UniProt P41145); assay: Calcium mobilization assay, CHO kappa cells expressing Gαqi5; assay type: cell-based; conditions: inactive = inactive up to 10 µM; for Kappa pEC50 (CL95%): calcium mobilization; for Kappa α± SEM: intrinsic activity, Emax ratio to standard agonist dynorphin A
T5 construct: expressed in transfected cells; host or cells: CHO cells stably co-expressing Gαqi5
T5 sequence (P41145 whole entry): as above

[9] = rat, pH 7.4, rat brain homogenate, 37°C
[10] = inactive = inactive up to 10 µM
[11] = calcium mobilization, inactive = inactive up to 10 µM, read-out: mu pEC50 (CL95%) (converted)
[12] = [3H]DAMGO, n ≥ 3, read-out: Ki ± SEM, mu
[13] = [3H]deltorphin-2, n ≥ 3, read-out: Ki ± SEM, Delta

Compound | 100 x k, rate constant of degradation ([1]; 37°C) | half-life at 0.25 mM [1, 9] | EC50 (human mu receptor) | mu α±SEM (human mu receptor; [10]) | EC50 [2] | Ki [3] | EC50 [4] | Delta pEC50 (CL95%) (delta-opioid receptor [5]) | Delta α± SEM (delta-opioid receptor [5]) | Ki (delta-opioid receptor [6]) | Bias factor (CL95%) (mu receptor) | logD [7] | Ki [8] | Kappa pEC50 (CL95%) (human kappa receptor) | Kappa α± SEM (human kappa receptor) | other results
Cc1cc(O)cc(C)c1C[C@H](N)C(=O)N1CCC[C@H]1C(=O)N[C@@H](Cc1ccccc1)C(=O)N[C@@H](Cc1ccccc1)C(N)=O [analog 1, Dmt-Pro-Phe-Phe-NH2] | 3.31 ± 0.12 per min | 0.347 ± 0.02 h | 2.51 nM | 0.85 ± 0.02 | 3.09 nM | 0.54 ± 0.03 nM | 11.7 nM | inactive | inactive | 560 ± 41 nM | 0.48 (0.34–0.62) | 2.16 | – | – | – | fold higher potency than EM-2 (human mu receptor; calcium mobilization, mu): 3 fold
NC(=O)[C@H](Cc1ccccc1)NC(=O)[C@H](Cc1ccccc1)NC(=O)[C@@H]1CCCN(C(=O)[C@@H](N)Cc2ccc(O)cc2)C1 [analog 4, Tyr-(R)-Nip-Phe-Phe-NH2] | 1.05 ± 0.08 per min | – | – | 0.99 ± 0.04 | 11.2 nM | – | 43.7 nM | inactive | inactive | – | −0.02 (−0.04-0.00) | 1.68 | > 1000 nM | inactive | inactive | half-life at 0.25 mM ([1]; pH 7.4, 37°C): 1.09 ± 0.04 h; EC50 (human mu receptor; [11]): 2.69 nM; Ki [3, 12]: 0.85 ± 0.17 nM; β-Arrestin 2 Emax±sem [4]: 1.30 ± 0.03; Ki (delta-opioid receptor [6]; [13]): > 1000 nM
Cc1cc(O)cc(C)c1C[C@H](N)C(=O)N1CCC[C@@H](C(=O)N[C@@H](Cc2ccccc2)C(=O)N[C@@H](Cc2ccccc2)C(N)=O)C1 [analog 5, Dmt-(R)-Nip-Phe-Phe-NH2] | 0.77 ± 0.06 per min | 1.49 ± 0.05 h | 0.316 nM | 1.00 ± 0.02 | 1.1 nM | 0.14 ± 0.06 nM | 3.63 nM | inactive | inactive | 589 ± 28 nM | −0.08 (−0.25-0.10) | 1.8 | 567 ± 39 nM | inactive | inactive | –
C[C@H](CNC(=O)[C@@H](N)Cc1ccc(O)cc1)C(=O)N[C@@H](Cc1ccccc1)C(=O)N[C@@H](Cc1ccccc1)C(N)=O [analog 6, Tyr-(R)-β ^ 2 -Ala-Phe-Phe-NH2] | 1.03 ± 0.07 per min | – | – | 0.88 ± 0.06 | 417 nM | – | 14100 nM | inactive | inactive | – | 1.35 (1.15–1.55) | 1.75 | > 1000 nM | inactive | inactive | half-life at 0.25 mM ([1]; pH 7.4, 37°C): 1.11 ± 0.045 h; EC50 (human mu receptor; [11]): 30.2 nM; Ki [3, 12]: 46.8 ± 5.18 nM; β-Arrestin 2 Emax±sem [4]: ∼1 ^a; Ki (delta-opioid receptor [6]; [13]): > 1000 nM
Cc1cc(O)cc(C)c1C[C@H](N)C(=O)NC[C@@H](C)C(=O)N[C@@H](Cc1ccccc1)C(=O)N[C@@H](Cc1ccccc1)C(N)=O [analog 7, Dmt-(R)-β ^ 2 -Ala-Phe-Phe-NH2] | 0.51 ± 0.03 per min | 2.26 ± 0.0717 h | 0.692 nM | 0.95 ± 0.03 | 4.57 nM | 0.31 ± 0.09 nM | 19.1 nM | inactive | inactive | 571 ± 55 nM | 0.67 (0.49–0.84) | 2.33 | 807 ± 46 nM | inactive | inactive | –
C[C@H](CC(=O)N[C@@H](Cc1ccccc1)C(=O)N[C@@H](Cc1ccccc1)C(N)=O)NC(=O)[C@@H](N)Cc1ccc(O)cc1 [analog 8, Tyr-(R)-β ^ 3 -Ala-Phe-Phe-NH2] (H-Y[d(β3hA)]FF-NH2; N-terminus assumed) | 0.82 ± 0.04 per min | 1.4 ± 0.065 h | 1 nM | 0.99 ± 0.02 | 7.41 nM | 0.44 ± 0.1 nM | 77.6 nM | inactive | inactive | > 1000 nM | 0.76 (0.55–0.98) | 1.71 | > 1000 nM | inactive | inactive | –
NC(=O)[C@H](Cc1ccccc1)NC(=O)C[C@@H](Cc1cccc2ccccc12)NC(=O)[C@@H]1CCCN1C(=O)[C@@H](N)Cc1ccc(O)cc1 [analog 12, Tyr-Pro-(R)-β ^ 3 -1-Nal-Phe-NH2] | 1.28 ± 0.05 per min | 0.898 ± 0.0683 h | 47.9 nM | 0.97 ± 0.02 | 77.6 nM | – | 145 nM | inactive | inactive | > 1000 nM | 0.23 (0.06–0.41) | 3.01 | > 1000 nM | inactive | inactive | –
Cc1cc(O)cc(C)c1C[C@H](N)C(=O)N1CCC[C@H]1C(=O)N[C@@H](CC(=O)N[C@@H](Cc1ccccc1)C(N)=O)Cc1cccc2ccccc12 [analog 13, Dmt-Pro-(R)-β ^ 3 -1-Nal-Phe-NH2] | 1.69 ± 0.07 per min | 0.68 ± 0.0667 h | 3.8 nM | 0.77 ± 0.02 | 3.63 nM | – | 4.37 nM | inactive | inactive | – | 0.27 (0.20–0.34) | 3.16 | – | inactive | inactive | –

Reference: publication PMC9998502, “Functional selectivity of EM-2 analogs at the mu-opioid receptor” (Frontiers in Pharmacology, 2023)
